According to patent US20240251788A1, “HERBICIDE/SAFENER COMBINATION BASED ON SAFENERS FROM THE CLASS OF SUBSTITUTED [(1,5-DIPHENYL-1H-1,2,4-TRIAZOL-3-YL)OXY]ACETIC ACIDS AND THEIR SALTS” (Bayer Aktiengesellschaft, priority 2021, published 2024):

Key:
[1] = test system: summer wheat crop plant (TRZAS; cv. Triso); assay: Reduction in herbicide damage to summer wheat by safener, greenhouse post-emergence application, visual scoring; format: in vivo; set-up: key to Reduction in the damage by safener (difference): difference in % visual damage (0-100% scale vs untreated) due to safener
Method: (§1) The seeds of the crop plants to be treated are laid out in soil in woodfiber pots (diameter ˜ 7 cm), covered with soil and grown in a greenhouse under good conditions for germination and growth. The trial plants were treated at the early leaf stage (BBCH10-BBCH12).
The herbicides used (component B) were used in the following formulations: • B2.81: WP • B2.85: WP • B2.92: WP • Cinmethylin: EC • Clomazone: WP • Ethofumesate: WP • Flufenacet: SC • Pinoxaden: WP • Saflufenacil: WP • Bicyclopyrone: WP • Picloram: WP • Metazachlor: SC • Flumioxazin: WP • Glyphosate potassium salt: SL • Topramezone: WP
(§2) The dose of the respective herbicides was chosen here such that it causes an average degree of visually apparent damage (min. 20%, max. 75%) compared to untreated crop plants at the evaluation time on a control group of crop plants without safener treatment that were included in the same trial.
(§3) In the respective herbicide/safener combinations, the safeners (component A) in the form of wettable powders (WP) were added in the dose specified; in these cases, herbicide and safener are thus applied as a mixture.
(§4) Application was effected in each case on to the above-ground parts of the plant, at a water application rate corresponding to 300 l/ha and with addition of wetting agent (Mero, 1.5 l/h a).
In the applications that contained pinoxaden, bicyclopyrone or topramezone, the herbicidal effect was enhanced by additionally adding ammonium sulfate (2 kg/ha).
(§5) After application, the plants were cultivated under good growth conditions in a greenhouse. On account of the different mechanisms of action of the herbicides used, the damaging effect of the herbicides was fully manifested at different times depending on the herbicide, and this in turn forms the basis for assessment of the safener action in the mixtures. Therefore, the damage was scored visually, depending on the herbicide/mixture, between 11 and 21 days after application.
(§6) The damage effect was assessed visually on a scale of 0-100% by comparison with untreated control plants, and averaged over 2 repeats per treatment.

[2] = test system: summer barley crop plant (HORVS: cv. Quench); assay: Reduction in herbicide damage to summer barley by safener, greenhouse post-emergence application, visual scoring; format: in vivo; set-up: key to Reduction in the damage by safener (difference): difference in % visual damage, 0-100% scale vs untreated plants
Method: as §1
The herbicides used (component B) were used in the following formulations: • B2.81: WP • B2.85: WP • B2.92: WP • Clomazone: WP • Ethofumesate: WP • Flufenacet: SC • Fluroxypyr: EC • Saflufenacil: WP • Thiencarbazone-methyl: WP • Iodosulfuron-methyl-sodium: WP • Bifenox: WP • Glyphosate potassium salt: SL • Topramezone: WP
as §2, §3, §4
In the applications that contained pinoxaden or topramezone, the herbicidal effect was enhanced by additionally adding ammonium sulfate (2 kg/ha).
as §5, §6

[3] = summer wheat (TRZAS), herbicide B1.8 (pinoxaden) 200 g a.i./ha + safener 100 g a.i./ha
[4] = summer wheat (TRZAS), herbicide B2.81 15 g a.i./ha + safener 100 g a.i./ha
[5] = summer wheat (TRZAS), herbicide B2.85 5 g a.i./ha + safener 100 g a.i./ha
[6] = summer wheat (TRZAS), herbicide B2.92 5 g a.i./ha + safener 100 g a.i./ha
[7] = summer wheat (TRZAS), herbicide B5.14 (clomazone) 200 g a.i./ha + safener 100 g a.i./ha
[8] = summer wheat (TRZAS), herbicide B5.21 (ethofumesate) 2000 g a.i./ha + safener 100 g a.i./ha
[9] = summer barley (HORVS), herbicide B2.68 (thiencarbazone-methyl) 30 g a.i./ha + safener 100 g a.i./ha
[10] = summer barley (HORVS), herbicide B2.81 15 g a.i./ha + safener 100 g a.i./ha
[11] = summer barley (HORVS), herbicide B2.85 5 g a.i./ha + safener 100 g a.i./ha
[12] = summer barley (HORVS), herbicide B2.92 5 g a.i./ha + safener 100 g a.i./ha
[13] = summer barley (HORVS), herbicide B5.21 (ethofumesate) 2000 g a.i./ha + safener 100 g a.i./ha
[14] = summer barley (HORVS), herbicide B6.4 (fluroxypyr) 500 g a.i./ha + safener 100 g a.i./ha
[15] = summer barley (HORVS), herbicide B9.10 (saflufenacil) 20 g a.i./ha + safener 100 g a.i./ha

COC(=O)COc1nc(-c2ccc(F)cc2F)n(-c2ccc(Cl)cc2F)n1 [Compound A5, methyl {[1-(4-chloro-2-fluorophenyl)-5-(2,4-difluorophenyl)-1H-1,2,4-triazol-3-yl]oxy}acetate]
Reduction in the damage by safener (difference) [1, 3]: 20 | Reduction in the damage by safener (in %) [1, 3]: 57% | Reduction in the damage by safener (difference) [1, 4]: 20 | Reduction in the damage by safener (in %) [1, 4]: 29% | Reduction in the damage by safener (difference) [1, 5]: 50 | Reduction in the damage by safener (in %) [1, 5]: 83% | Reduction in the damage by safener (difference) [1, 6]: 55 | Reduction in the damage by safener (in %) [1, 6]: 92% | Reduction in the damage by safener (difference) [1, 7]: 15 | Reduction in the damage by safener (in %) [1, 7]: 38% | Reduction in the damage by safener (difference) [1, 8]: 70 | Reduction in the damage by safener (in %) [1, 8]: 100% | Reduction in the damage by safener (difference) [2, 9]: 30 | Reduction in the damage by safener (in %) [2, 9]: 100% | Reduction in the damage by safener (difference) [2, 10]: 20 | Reduction in the damage by safener (in %) [2, 10]: 29% | Reduction in the damage by safener (difference) [2, 11]: 40 | Reduction in the damage by safener (in %) [2, 11]: 67% | Reduction in the damage by safener (difference) [2, 12]: 50 | Reduction in the damage by safener (in %) [2, 12]: 77% | Reduction in the damage by safener (difference) [2, 13]: 60 | Reduction in the damage by safener (in %) [2, 13]: 100% | Reduction in the damage by safener (difference) [2, 14]: 15 | Reduction in the damage by safener (in %) [2, 14]: 75% | Reduction in the damage by safener (difference) [2, 15]: 15 | Reduction in the damage by safener (in %) [2, 15]: 38%

C=C[C@]1(C(=O)N[C@H]2C=C[C@@H](C(=O)OC)C2)CC(c2cc(F)cc(F)c2)=NO1 [Compound B2.85, methyl (1S,4R)-4-[[[(5S)-3-(3,5-difluorophenyl)-5-vinyl-4H-1,2-oxazol-5-yl]carbonyl]amino]cyclopent-2-ene-1-carboxylate]
Damage to the plant by the herbicide (in %) ([1]; in vivo): 60% | Damage to the plant by the herbicide (in %) ([2]; in vivo): 60%

C=C[C@]1(C(=O)N[C@H]2CO[C@@H](C(=O)OC)C2)CC(c2cc(F)cc(F)c2)=NO1 (relative stereo) [Compound B2.81, methyl (2R*,4R*)-4-[[(5S)-3-(3,5-difluorophenyl)-5-vinyl-4H-isoxazole-5-carbonyl]amino]tetrahydrofuran-2-carboxylate]
Damage to the plant by the herbicide (in %) ([1]; in vivo): 70% | Damage to the plant by the herbicide (in %) ([2]; in vivo): 70%

topramezone [Compound B4.28, reference compound]
Damage to the plant by the herbicide (in %) ([1]; summer wheat (TRZAS), herbicide dose 300 g a.i./ha, without safener): 40% | Damage to the plant by the herbicide (in %) ([2]; summer barley (HORVS), herbicide dose 300 g a.i./ha, without safener): 50%

CC(C)N(C)S(=O)(=O)NC(=O)c1cc(-n2c(=O)cc(C(F)(F)F)n(C)c2=O)c(F)cc1Cl [Compound B9.10, saflufenacil, reference compound]
Damage to the plant by the herbicide (in %) ([1]; summer wheat (TRZAS), herbicide dose 10 g a.i./ha, without safener): 35% | Damage to the plant by the herbicide (in %) ([1]; summer wheat (TRZAS), herbicide dose 20 g a.i./ha, without safener): 40% | Damage to the plant by the herbicide (in %) ([2]; summer barley (HORVS), herbicide dose 20 g a.i./ha, without safener): 40%

CC1(C)CON(Cc2ccccc2Cl)C1=O [Compound B5.14, clomazone, reference compound]
Damage to the plant by the herbicide (in %) ([1]; in vivo): 40% | Damage to the plant by the herbicide (in %) ([2]; in vivo): 40%

C[C@]1(C(=O)N[C@H]2C=C[C@@H](C(=O)O)C2)CC(c2cc(F)cc(F)c2)=NO1 [Compound B2.92, (1S,4R)-4-[[(5R)-3-(3,5-difluorophenyl)-5-methyl-4H-isoxazole-5-carbonyl]amino]cyclopent-2-ene-1-carboxylic acid]
Damage to the plant by the herbicide (in %) ([1]; in vivo): 60% | Damage to the plant by the herbicide (in %) ([2]; in vivo): 65%
